Data reported in patent publication US12281117B2, “Small molecule immune agonists and immune targeting compounds and application thereof” (SHENZHEN UNIVERSITY, priority 2018, dated 2025).

What was measured:
spleen lymphocytes = experiment: Immunostimulatory effects on spleen lymphocytes, cytokines in supernatant by ELISA; format: cell-based, BALB/c or C57BL/6 mouse; conditions: FIG. 59 and FIG. 60; compared with JQ1 plus SZU-101
Method: Effect Example 1: Detection of the Immunostimulatory Effects of the SZU-Series Small-Molecule Immune Agonists and Novel Immune Targeted Compounds of the Present Invention on Spleen Lymphocytes
1. Extraction of Spleen Lymphocytes
(1) BALB/c or C57BL/6 mouse spleens were collected, ground in a small dish containing Mouse Lymphocyte Separation Medium, and filtered through a filter membrane (with a pore size of […]) to obtain a cell suspension, which was treated by centrifugation to obtain lymphocytes. The isolated lymphocytes were placed in a 15 mL centrifuge tube, into which 10 mL of 1640 complete medium was added. The mixture was mixed uniformly and centrifuged at 250 g for 10 minutes. The supernatant was discarded.
(2) The cells were re-suspended with 1 mL of erythrocyte lysate. After 1 minute of lysis, 4 mL of 1640 complete medium was added for termination. The tube was centrifuged at 1,000 rpm for 5 minutes. The supernatant was discarded.
(3) The cells were re-suspended with 2 mL of 1640 complete medium, counted, and then seeded into 24-well plates at a density of 1×10^6 cells per well.
2. Preparation of the Samples
The spleen lymphocytes seeded into the 24-well plates were stimulated with different concentrations of the SZU-series small-molecule immune agonists and novel immune targeted compounds. The 24-well plate was transferred into an incubator. […]

[1] = test system: CD274 (PD-L1) on B16 cells; experiment: Inhibitory activity against CD274 (PD-L1) on B16 cells; format: cell-based; conditions: FIG. 61

COCCOc1nc(N)c2nc(O)n(Cc3ccc(CNC(=O)CCC(=O)NCCOCCOCCOCCNC(=O)C[C@@H]4N=C(c5ccc(Cl)cc5)c5c(sc(C)c5C)-n5c(C)nnc54)cc3)c2n1 [SZU-119]
activity of TLR7 agonist for stimulating immune cytokine (spleen lymphocytes): retains the activity of TLR7 agonist | inhibitory activity against CD274 (PD-L1) on B16 cells [1]: retains the inhibitory activity of JQ1
